From ChEMBL document CHEMBL4261501, “Design, synthesis and biological evaluation of imidazopyridine-propenone conjugates as potent tubulin inhibitors” (Medchemcomm, 2017)

Assays:
[1] = tested on: DU-145; experiment: Cytotoxicity against human DU145 cells after 48 hrs by MTT assay; assay type: functional, cell-based; conditions: DU-145, 48 h
[2] = tested on: A549; experiment: cells; conditions: Homo sapiens, A549, 48 h
Description: Cytotoxicity against human A549 cells after 48 hrs by MTT assay

[3] = tested on: HeLa; experiment: cells; conditions: Homo sapiens, 48 h
Description: Cytotoxicity against human HeLa cells after 48 hrs by MTT assay

[4] = tested on: MCF7; experiment: cells; conditions: Homo sapiens, MCF7, 48 h
Description: Cytotoxicity against human MCF7 cells after 48 hrs by MTT assay

SMILES	IC50 [2]	IC50 [3]	IC50 [4]	IC50 [1]
COc1ccc(N/C=C\C(=O)c2c(-c3ccc(Cl)cc3)nc3ccccn23)cc1	6.46 µM	11.8 µM	16.3 µM	10.8 µM
COc1cc(N/C=C\C(=O)c2c(-c3ccc(Cl)cc3)nc3ccccn23)cc(OC)c1	9.9 µM	14.6 µM	13.6 µM	12 µM
COc1ccc(-c2nc3ccccn3c2C(=O)/C=C\Nc2ccc(Br)cc2)cc1	1.35 µM	4.54 µM	9.83 µM	1.45 µM
COc1ccc(-c2nc3ccccn3c2C(=O)/C=C\Nc2cnc3ccccc3c2)cc1	1.05 µM	9.44 µM	15 µM	5.28 µM
O=C(/C=C\Nc1ccc2ncccc2c1)c1c(-c2ccc(Cl)cc2)nc2ccccn12	13 µM	16.4 µM	22.8 µM	13.6 µM
COc1ccc(-c2nc3ccccn3c2C(=O)/C=C\Nc2cc(OC)cc(OC)c2)cc1	4.47 µM	4.57 µM	14.9 µM	6.26 µM
COc1ccc(-c2nc3ccccn3c2C(=O)/C=C\Nc2ccc3ncccc3c2)cc1	1.21 µM	4.85 µM	11.6 µM	4.72 µM
COc1ccc(-c2nc3ccccn3c2C(=O)/C=C\Nc2ccc(F)cc2)cc1	3.25 µM	11 µM	13 µM	6.13 µM

The remaining compounds from weak to strong by IC50 [2], led by results:

IC50 [2]	IC50 [3]	IC50 [4]	SMILES	IC50 [1]
2.29 µM	10.9 µM	9.6 µM	O=C(/C=C\Nc1ccc2cc[nH]c2c1)c1c(-c2ccc(Cl)cc2)nc2ccccn12	2.63 µM
1.35 µM	2.04 µM	8.67 µM	O=C(/C=C\Nc1ccc(Br)cc1)c1c(-c2ccccc2)nc2ccccn12	1.82 µM
1.01 µM	3.24 µM	7.12 µM	O=C(/C=C\Nc1ccc2[nH]ccc2c1)c1c(-c2ccc(Cl)cc2)nc2ccccn12	1.29 µM
